Source: ChEMBL document CHEMBL1144956, “Chemical synthesis and cytotoxicity of dihydroxylated cyclopentenone analogues of neocarzinostatin chromophore” (Bioorg Med Chem Lett, 2003)

Experiments:
Type in all cases: functional, cell-based
A2780 [1] = assay: In vitro cytotoxic activity against human tumor cell line A2780CisR after incubation for 96 hours; settings: A2780, 96 h
A2780 [2] = assay: In vitro cytotoxic activity against human tumor cell line A2780 after incubation for 96 hours; settings: A2780, 96 h
CH1 = assay: In vitro cytotoxic activity against human tumor cell line CH1 after incubation for 96 hours; settings: CH1, 96 h
HT-29 = assay: In vitro cytotoxic activity against human tumor cell line HT-29 after incubation for 96 hours; settings: HT-29, 96 h
K562 = assay: In vitro cytotoxic activity against human leukemic cell line K562 after incubation for 1 hour; settings: K562, 1 h
SK-OV-3 = assay: In vitro cytotoxic activity against human tumor cell line SKOV-3 after incubation for 96 hours; settings: SK-OV-3, 96 h

Compound | IC50 (A2780 [1]) [µM] | IC50 (A2780 [2]) [µM] | IC50 (CH1) [µM] | IC50 (HT-29) [µM] | IC50 (K562) [µM] | IC50 (SK-OV-3) [µM]
O=C(O[C@@H]1C(=O)C(Br)=C[C@H]1O)c1c(O)ccc2ccccc12 | 13 | 9.4 | 11 | > 25 | 5 | 9.4
O=C(O[C@@H]1C=C(Br)C(=O)[C@H]1O)c1c(O)ccc2ccccc12 | 17.5 | 10 | 11 | > 25 | 3.5 | 11
COc1cc(C)c2ccc(O)c(C(=O)O[C@@H]3C(=O)C=C[C@H]3O)c2c1 | 9 | 9.4 | 11 | 13 | 4.5 | 7.2
COc1cc(C)c2ccc(O)c(C(=O)O[C@H]3[C@H](O)C=C[C@@H]3O)c2c1 |  |  |  |  | > 100 | 
O=C(O[C@@H]1C=CC(=O)[C@H]1O)c1c(O)ccc2ccccc12 | 8.6 | 2.7 | 4 | 12 | 6 | 2.3
O=C(O[C@@H]1C(=O)C=C[C@H]1O)c1c(O)ccc2ccccc12 | 9.4 | 3.7 | 5.8 | 12 | 4 | 3.1
COc1cc(C)c2ccc(O)c(C(=O)O[C@@H]3C=C[C@H](O)[C@H]3O)c2c1 |  |  |  |  | > 100 | 
O=C(O[C@@H]1C=C[C@H](O)[C@H]1O)c1c(O)ccc2ccccc12 |  |  |  |  | > 100 | 
O=C(O[C@H]1[C@H](O)C=C[C@@H]1O)c1c(O)ccc2ccccc12 |  |  |  |  | > 100 | 
COc1cc(C)c2ccc(O)c(C(=O)O[C@@H]3C=CC(=O)[C@H]3O)c2c1 | 4 | 2.5 | 2.5 | 11 | 5 | 2.5
